# Laboratory results from patent US8217000B2, “Method for elevating prolactin in mammals” (Cara Therapeutics, Inc., priority 2006, dated 2012).
# Where a name gives a salt, the structure may show the parent alone. Non-standard residues stand in square brackets, D forms with d. Residues, ends and D or L forms follow the SMILES beside them. *: point of attachment. NH(4-picolyl) = c1cc(CN*)ccn1; dNle = CCCC[C@@H](N)C(=O)O
# Assay: Plasma pharmacokinetics of CR665 after single IV infusion in human subjects
# Conditions: for half-life / clearance / Vd / AUC(0-t) / AUC(0-inf) / Cmax / MRT / Tmax: human, plasma; for clearance: CL; for AUC(0-t): AUC0-t; for AUC(0-inf): AUC0-∞; for MRT: MRTint; for Tmax: median
# Method: This clinical study was conducted as a double blind, placebo controlled, ascending single intravenous (IV) dose, sequential group study. This study was double blind and placebo controlled in order to avoid bias in the collection and evaluation of data during its conduct. […] In each group, subjects received CR665 or placebo. Doses were administered as a single constant rate IV infusion over 1 hour (part A) or 5 minutes (part B) on the morning of Day 1. Doses were administered in an escalating manner following satisfactory review of the safety data and pharmacokinetic data from the lower dose levels. There was a minimum of 6 days between dose escalations to allow sufficient time for an adequate safety review.
# Plasma and urine samples for the analysis of CR665 and N oxide metabolite were prepared by solid phase extraction. The centrifuged eluates were quantified by liquid chromatography with tandem mass spectrometric detection (LC MS/MS). The lower limit of quantification was 1 ng/mL.
# For pharmacokinetic assessments, blood samples (1×3 mL) were taken from the contralateral forearm vein(s) at the following times: Pre-dose, 15 minutes, 30 minutes, 45 minutes, 1 hour (immediately prior to the end of infusion), 1 hour 5 minutes, 1 hour 10 minutes, 1 hour 15 minutes, 1.5, 2, 2.5, 3, 4, 6, 8, 12, 16, 24, 36 and 48 hours after the start of the infusion). An indwelling cannula (Venflon®; BOC Ohmeda AB, Sweden) was used for all blood collection pre-dose and up to at least 12 hours after the start of the infusion. Otherwise, samples were collected using venipuncture. Blood samples were collected into pre-chilled 3 mL K3EDTA Vacutainer™ tubes (Becton Dickinson UK, Ltd., Oxford) and, after mixing, were placed in a cool box containing crushed ice/water. The samples were centrifuged, within 30 minutes of collection, at 1500 g for 10 minutes at approximately 4° C. For each sample, the separated plasma was transferred into two 5 mL suitably labeled polypropylene tubes, and stored immediately at approximately −20° C. Plasma samples were analyzed for CR665 using liquid chromatography with tandem mass spectrometric detection.
# The pharmacokinetic analysis was conducted using WinNonlin Enterprise Version 4.0.1.
# Pharmacokinetic parameters were determined from the plasma and urine, concentrations of CR665 and the N-oxide metabolite using non compartmental procedures.
# Dose and body weight normalized values (norm) were determined for AUC0-t, AUC0-∞, Cinf and Cmax. Body weight normalized values [norm] were determined for Vz, Vss, CL and CLR.
# The pharmacokinetic analysis was conducted using model independent methods as implemented in WinNonlin software, based on plasma concentrations of CR665 from those subjects who have received CR665 and have evaluable plasma concentration-time profiles.
# The following plasma pharmacokinetic parameters were determined for CR665: • Cmax Maximum plasma concentration • tmax Time of maximum plasma concentration • t1/2z Terminal half-life=ln(2)/λz • AUC0-1 Area under the plasma concentration-time curve from time zero to time t (time of last quantifiable plasma concentration) • AUCinf Area under the plasma concentration-time curve from time zero to infinity calculated as [AUC0-t+(Clast/λz)] where Clast is the estimated concentration at the last quantifiable concentration curve. • λz Terminal-phase rate constant, also known as Kel • CL Total body clearance=Dose/AUCinf • Vz Volume of distribution based on terminal phase calculated as Vz/F=Dose/λz*AUCinf
# Individual elapsed sampling times were used in the pharmacokinetic analysis. Cmax and tmax were obtained directly from the experimental observations. For the purpose of calculating AUC0-t, when two consecutive plasma concentrations below the lower limit of quantification (LLOQ) were encountered after tmax, all subsequent values were excluded from the analysis.
# [1] = female, iv, 0.06 mg/kg, females, 5-minute IV infusion, geometric mean
# [2] = female, iv, 0.24 mg/kg, females, 1-hour IV infusion, geometric mean
# [3] = females, 0.24 mg/kg dose level as printed, Part B text
# [4] = male, iv, 0.015 mg/kg, males, 1 hour IV infusion, geometric mean
# [5] = male, iv, 0.03 mg/kg, males, 5-minute IV infusion, geometric mean
# [6] = male, iv, 0.03 mg/kg, males, 1 hour IV infusion, geometric mean
smiles,measurement,setting,value
"CCCC[C@@H](NC(=O)[C@@H](Cc1ccccc1)NC(=O)[C@H](N)Cc1ccccc1)C(=O)N[C@H](CCCNC(=N)N)C(=O)NCc1ccncc1 [CR665, D-phenylalanyl-D-phenylalanyl-D-norleucyl-N-(4-pyridinylmethyl)-D-argininamide, acetate salt] (H-[dF][dF][dNle][dR]-{NH(4-picolyl)})",half-life,"both, intravenous, 0.24 mg/kg, Mean terminal elimination half-life, male and female subjects, 1-hour infusion",72 to 84 min
same,clearance,"female, intravenous, 0.06 mg/kg, geometric least squares mean, females, 5-minute infusion",544 mL/min
same,half-life,"female, intravenous, 0.06 mg/kg, Mean terminal elimination half life, females, 5-minute infusion",~48 min
same,Vd,"female, intravenous, 0.06 mg/kg, Vss, geometric least squares mean, females, 5-minute infusion",14.1 L
same,Vd,"female, intravenous, 0.06 mg/kg, Vz, geometric least squares mean, females, 5-minute infusion",45.7 L
same,half-life,"female, intravenous, 0.06 mg/kg, t1/2, geometric least squares mean, females, 5-minute infusion",56.8 min
same,clearance,"female, intravenous, 0.24 mg/kg, geometric least squares mean, females, 1-hour infusion",573 mL/min
same,half-life,"female, intravenous, 0.24 mg/kg, Mean terminal elimination half-life, females, 1-hour infusion",72 min
same,Vd,"female, intravenous, 0.24 mg/kg, Vss, geometric least squares mean, females, 1-hour infusion",17 L
same,Vd,"female, intravenous, 0.24 mg/kg, Vz, geometric least squares mean, females, 1-hour infusion",50.2 L
same,half-life,"female, intravenous, 0.24 mg/kg, t1/2, geometric least squares mean, females, 1-hour infusion",63 min
same,AUC(0-t),[1],120 ng·h/mL
same,AUC(0-inf),[1],122 ng·h/mL
same,clearance,[1],544 mL/min
same,Cmax,[1],520 ng/mL
same,MRT,[1],25.1 min
same,Vd,"female, iv, 0.06 mg/kg, Vss, females, 0.06 mg/kg, 5-minute IV infusion, geometric mean",13.7 L
same,Vd,"female, iv, 0.06 mg/kg, Vz, females, 5-minute IV infusion, geometric mean",39.2 L
same,half-life,"female, iv, 0.06 mg/kg, t1/2, females, 5-minute IV infusion, geometric mean",50 min
same,Tmax,"female, iv, 0.06 mg/kg, females, 5-minute IV infusion",5 min
same,AUC(0-t),[2],440 ng·h/mL
same,AUC(0-inf),[2],442 ng·h/mL
same,clearance,[2],557 mL/min
same,Cmax,[2],384 ng/mL
same,MRT,[2],30.9 min
same,Vd,"female, iv, 0.24 mg/kg, Vss, females, 0.24 mg/kg, 1-hour IV infusion, geometric mean",17.2 L
same,Vd,"female, iv, 0.24 mg/kg, Vz, females, 1-hour IV infusion, geometric mean",55.7 L
same,half-life,"female, iv, 0.24 mg/kg, t1/2, females, 1-hour IV infusion, geometric mean",69.6 min
same,Tmax,"female, iv, 0.24 mg/kg, females, 1-hour IV infusion",45 min
same,"AUC0-t (norm), ratio of geometric least squares means 5-minute:1-hour",females,1.04
same,"AUC0-∞ (norm), ratio of geometric least squares means 5-minute:1-hour",females,1.05
same,"CL, ratio of geometric least squares means 5-minute:1-hour",females,0.950
same,"Cmax (norm), ratio of geometric least squares means 5-minute:1-hour",females,5.27
same,"Cmax, fold higher for the 5-minute compared to the 1-hour infusion",females,5.3 fold
same,"MRTint, ratio of geometric least squares means 5-minute:1-hour",females,0.864
same,"Vss, ratio of geometric least squares means 5-minute:1-hour",females,0.832
same,"Vz, ratio of geometric least squares means 5-minute:1-hour",females,0.911
same,"t1/2, ratio of geometric least squares means 5-minute:1-hour",females,0.901
same,Between-subject variability (CV %) for AUC0-∞,[3],8.8%
same,Between-subject variability (CV %) for Cmax,[3],18.8%
same,"MRTint, geometric least squares mean","females, 1-hour infusion",29.9 min
same,"MRTint, geometric least squares mean","females, 5-minute infusion",25.8 min
same,half-life,"intravenous, Apparent elimination half life, individual subjects, males, 0.12 to 0.48 mg/kg, 1 hour infusion",72 to 180 min
same,Vd,"male, intravenous, Apparent volume of distribution at steady state (VSS), males, 0.12 to 0.48 mg/kg dose range",19 to 23 L
same,clearance,"male, intravenous, geometric least squares mean, males, 1-hour infusion, Parts A & B",557 mL/min
same,clearance,"male, intravenous, geometric least squares mean, males, 5-minute infusion, Parts A & B",538 mL/min
same,half-life,"male, intravenous, Mean apparent elimination half life, males, 0.015 to 0.06 mg/kg, 1 hour infusion",~42 min
same,half-life,"male, intravenous, Mean apparent elimination half life, males, 0.03 to 0.09 mg/kg, 5-minute infusion",60 to 78 min
same,half-life,"male, intravenous, Mean apparent elimination half life, males, 0.12 to 0.48 mg/kg, 1 hour infusion",84 to 114 min
same,Vd,"male, intravenous, Vss, geometric least squares mean, males, 1-hour infusion, Parts A & B",20.1 L
same,Vd,"male, intravenous, Vss, geometric least squares mean, males, 5-minute infusion, Parts A & B",18.1 L
same,Vd,"male, intravenous, Vz, geometric least squares mean, males, 1-hour infusion, Parts A & B",59.1 L
same,Vd,"male, intravenous, Vz, geometric least squares mean, males, 5-minute infusion, Parts A & B",61 L
same,half-life,"male, intravenous, t1/2, geometric least squares mean, males, 1-hour infusion, Parts A & B",75 min
same,half-life,"male, intravenous, t1/2, geometric least squares mean, males, 5-minute infusion, Parts A & B",76.8 min
same,AUC(0-t),[4],30 ng·h/mL
same,AUC(0-inf),[4],31.4 ng·h/mL
same,clearance,[4],560 mL/min
same,Cmax,[4],27.8 ng/mL
same,MRT,[4],30.7 min
same,Vd,"male, iv, 0.015 mg/kg, Vss, males, 0.015 mg/kg, 1 hour IV infusion, geometric mean",17.2 L
same,Vd,"male, iv, 0.015 mg/kg, Vz, males, 1 hour IV infusion, geometric mean",33.5 L
same,half-life,"male, iv, 0.015 mg/kg, t1/2, males, 1 hour IV infusion, geometric mean",41.5 min
same,Tmax,"male, iv, 0.015 mg/kg, males, 1 hour IV infusion",60 min
same,AUC(0-t),[5],65.9 ng·h/mL
same,AUC(0-t),[6],70 ng·h/mL
same,AUC(0-inf),[5],68.4 ng·h/mL
same,AUC(0-inf),[6],72.5 ng·h/mL
same,clearance,[5],473 mL/min
same,clearance,[6],538 mL/min
same,Cmax,[5],233 ng/mL
same,Cmax,[6],65.3 ng/mL
same,MRT,[5],36.9 min
same,MRT,[6],30.6 min
same,Vd,"male, iv, 0.03 mg/kg, Vss, males, 0.03 mg/kg, 5-minute IV infusion, geometric mean",17.4 L
same,Vd,"male, iv, 0.03 mg/kg, Vss, males, 0.03 mg/kg, 1 hour IV infusion, geometric mean",16.5 L
same,Vd,"male, iv, 0.03 mg/kg, Vz, males, 5-minute IV infusion, geometric mean",53.6 L
same,Vd,"male, iv, 0.03 mg/kg, Vz, males, 1 hour IV infusion, geometric mean",34.1 L
same,half-life,"male, iv, 0.03 mg/kg, t1/2, males, 5-minute IV infusion, geometric mean",78.6 min
same,half-life,"male, iv, 0.03 mg/kg, t1/2, males, 1 hour IV infusion, geometric mean",43.9 min
same,Tmax,"male, iv, 0.03 mg/kg, males, 5-minute IV infusion",5 min
same,Tmax,"male, iv, 0.03 mg/kg, males, 1 hour IV infusion",60 min
same,AUC(0-t),"male, iv, 0.06 mg/kg, males, 5-minute IV infusion, geometric mean",139 ng·h/mL
same,AUC(0-t),"male, iv, 0.06 mg/kg, males, 1 hour IV infusion, geometric mean",129 ng·h/mL
